In article PMC6006285, “Specific stereochemistry of OP-1074 disrupts estrogen receptor alpha helix 12 and confers pure antiestrogenic activity” (Nature Communications, 2018):

Test system: AP activity in Ishikawa uterine cells
Test: Alkaline phosphatase (AP) assay, agonist mode (absence of E2)
Assay type: cell-based, human
Procedure: Our primary screen to distinguish pure antiestrogens from SERMs was induction of alkaline phosphatase (AP) activity in Ishikawa uterine cells. […] The reference SERM used in our screen was endoxifen (N-desmethyl-4-hydroxytamoxifen), the most abundant bioactive metabolite of tamoxifen.
Shown is a representative figure analyzed and presented as above.
At least 4 h later cells were treated with antiestrogens and media was diluted to 2.5% stripped FBS. Cells were incubated for 3 days, media removed and plates frozen at −80 °C. Thawed plates were incubated with a chromogenic substrate of AP, p-nitrophenyl phosphate (ThermoFisher Scientific, #36721), for 40–60 min at 40 °C, and absorbance read at 405 nm on the Varioskan Lux multimodal plate reader (ThermoFisher Scientific, #VLBL00D0).

SMILES: CC1=C(c2ccc(O)cc2)[C@H](c2ccc(OCCN3CC[C@@H](C)C3)cc2)Oc2cc(O)ccc21 [OP-1074]
- Maximal AP activity in agonist mode relative to E2 control (3 days, absence of E2, normalized to 500 pM E2, representative experiment (Fig. 2a)): 8%
- Induction of AP activity (% E2) (Maximum AP activity observed relative to positive control, 500 pM E2, means of n independent experiments ±s.d.): 10% ± 4.4 (n = 29) % E2
